Measurements published in PubChem BioAssay AID1918998 (Molecular Pharmacology Branch, DTP, NCI, 2023).
pIC50: −log10 of the molar value. Values joined by “and” are separate entries in the source; they are usually repeats but may differ in a detail not shown here. Equal values may be shown once.

Test system: 521955-158-R2-J5-PDC complex spheroid growth
Assay: Anticancer human tumor 521955-158-R2-J5-PDC patient-derived pancreatic carcinoma cell line growth inhibition [AhR]
Details: for viability, T/C: stronger effect = lower value
Procedure, shortened: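 Agents were dosed in half-log steps down from roughly clinical Cmax, or from 10 microM where Cmax was unknown, alone and with AhR antagonists. Read-out: percent test/control growth of tumor spheroids containing HUVEC and MSC stromal cells.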

[1] = curve of first compound, second compound 0.1 µM
[2] = curve of first compound, second compound 0.316 µM
[3] = curve of first compound, second compound 1 µM
[4] = curve of first compound, second compound 3.16 µM
[5] = curve of first compound, second compound 10 µM
[6] = second compound 0.1 µM, first compound 0.000949 µM
[7] = second compound 0.1 µM, first compound 0.003 µM
[8] = second compound 0.1 µM, first compound 0.00949 µM
[9] = second compound 0.1 µM, first compound 0.03 µM
[10] = second compound 0.1 µM, first compound 0.0949 µM
[11] = second compound 0.1 µM, first compound 0.3 µM
[12] = second compound 0.316 µM, first compound 0.000949 µM
[13] = second compound 0.316 µM, first compound 0.003 µM
[14] = second compound 0.316 µM, first compound 0.00949 µM
[15] = second compound 0.316 µM, first compound 0.03 µM
[16] = second compound 0.316 µM, first compound 0.0949 µM
[17] = second compound 0.316 µM, first compound 0.3 µM
[18] = second compound 1 µM, first compound 0.000949 µM
[19] = second compound 1 µM, first compound 0.003 µM
[20] = second compound 1 µM, first compound 0.00949 µM
[21] = second compound 1 µM, first compound 0.03 µM
[22] = second compound 1 µM, first compound 0.0949 µM
[23] = second compound 1 µM, first compound 0.3 µM
[24] = second compound 3.16 µM, first compound 0.000949 µM
[25] = second compound 3.16 µM, first compound 0.003 µM
[26] = second compound 3.16 µM, first compound 0.00949 µM
[27] = second compound 3.16 µM, first compound 0.03 µM
[28] = second compound 3.16 µM, first compound 0.0949 µM
[29] = second compound 3.16 µM, first compound 0.3 µM
[30] = second compound 10 µM, first compound 0.000949 µM
[31] = second compound 10 µM, first compound 0.003 µM
[32] = second compound 10 µM, first compound 0.00949 µM
[33] = second compound 10 µM, first compound 0.03 µM
[34] = second compound 10 µM, first compound 0.0949 µM
[35] = second compound 10 µM, first compound 0.3 µM
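Throughout, for viability, T/C: spheroids mix tumor cells with HUVEC endothelium and human MSC stroma; luminescence taken as viability surrogate after a week of drug exposure.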

SMILES: Nc1ncn(C2CC(O)C(CO)S2)c(=O)n1 (configuration not stated) + Cc1cncc(-c2nc(NCCc3c[nH]c4ccccc34)c3ncn(C(C)C)c3n2)c1
- pIC50 [1]: < 6.52
- pIC50 [2]: < 6.52
- pIC50 [3]: < 6.52
- pIC50 [4]: < 6.52
- pIC50 [5]: < 6.52
- viability, T/C [6]: 115%
- viability, T/C [7]: 113%
- viability, T/C [8]: 123%
- viability, T/C [9]: 105%
- viability, T/C [10]: 93.3%
- viability, T/C [11]: 97.8%
- viability, T/C [12]: 112%
- viability, T/C [13]: 112%
- viability, T/C [14]: 117%
- viability, T/C [15]: 115%
- viability, T/C [16]: 99.5%
- viability, T/C [17]: 93.7%
- viability, T/C [18]: 126%
- viability, T/C [19]: 161%
- viability, T/C [20]: 158%
- viability, T/C [21]: 125%
- viability, T/C [22]: 125%
- viability, T/C [23]: 99%
- viability, T/C [24]: 146%
- viability, T/C [25]: 129%
- viability, T/C [26]: 122%
- viability, T/C [27]: 123%
- viability, T/C [28]: 118%
- viability, T/C [29]: 128%
- viability, T/C [30]: 145%
- viability, T/C [31]: 143%
- viability, T/C [32]: 105%
- viability, T/C [33]: 142%
- viability, T/C [34]: 114%
- viability, T/C [35]: 121%

SMILES: NS(=O)(=O)OCC1CC(n2ccc3c(NC4CCc5ccccc54)ncnc32)CC1O (configuration not stated) + Cc1cncc(-c2nc(NCCc3c[nH]c4ccccc34)c3ncn(C(C)C)c3n2)c1
- pIC50 [1]: 6.01
- pIC50 [2]: 5.93
- pIC50 [3]: 5.90
- pIC50 [4]: 5.91
- pIC50 [5]: 7.17
- viability, T/C (second compound 0.1 µM, first compound 0.0316 µM): 106%
- viability, T/C (second compound 0.1 µM, first compound 0.1 µM): 103%
- viability, T/C (second compound 0.1 µM, first compound 0.316 µM): 80.1%
- viability, T/C (second compound 0.1 µM, first compound 1 µM): 47.9%
- viability, T/C (second compound 0.1 µM, first compound 3.16 µM): 40.1%
- viability, T/C (second compound 0.1 µM, first compound 10 µM): 30.1%
- viability, T/C (second compound 0.316 µM, first compound 0.0316 µM): 105%
- viability, T/C (second compound 0.316 µM, first compound 0.1 µM): 102%
- viability, T/C (second compound 0.316 µM, first compound 0.316 µM): 78.5%
- viability, T/C (second compound 0.316 µM, first compound 1 µM): 53.4%
- viability, T/C (second compound 0.316 µM, first compound 3.16 µM): 35.6%
- viability, T/C (second compound 0.316 µM, first compound 10 µM): 30.4%
- viability, T/C (second compound 1 µM, first compound 0.0316 µM): 115%
- viability, T/C (second compound 1 µM, first compound 0.1 µM): 105%
- viability, T/C (second compound 1 µM, first compound 0.316 µM): 83.7%
- viability, T/C (second compound 1 µM, first compound 1 µM): 52.1%
- viability, T/C (second compound 1 µM, first compound 3.16 µM): 38%
- viability, T/C (second compound 1 µM, first compound 10 µM): 32.1%
- viability, T/C (second compound 3.16 µM, first compound 0.0316 µM): 99.4%
- viability, T/C (second compound 3.16 µM, first compound 0.1 µM): 102%
- viability, T/C (second compound 3.16 µM, first compound 0.316 µM): 75.2%
- viability, T/C (second compound 3.16 µM, first compound 1 µM): 52.6%
- viability, T/C (second compound 3.16 µM, first compound 3.16 µM): 45%
- viability, T/C (second compound 3.16 µM, first compound 10 µM): 35.2%
- viability, T/C (second compound 10 µM, first compound 0.0316 µM): 65.5%
- viability, T/C (second compound 10 µM, first compound 0.1 µM): 40.6%
- viability, T/C (second compound 10 µM, first compound 0.316 µM): 34.4%
- viability, T/C (second compound 10 µM, first compound 1 µM): 32.7%
- viability, T/C (second compound 10 µM, first compound 3.16 µM): 28.7%
- viability, T/C (second compound 10 µM, first compound 10 µM): 23.9%

SMILES: Nc1ncn(C2CC(O)C(CO)S2)c(=O)n1 (configuration not stated) + Cc1ccccc1N=Nc1ccc(NC(=O)c2ccnn2C)c(C)c1
- pIC50 [1]: < 6.52
- pIC50 [2]: < 6.52
- pIC50 [3]: < 6.52
- pIC50 [4]: < 6.52
- pIC50 [5]: < 6.52
- viability, T/C [6]: 125%
- viability, T/C [7]: 103%
- viability, T/C [8]: 104%
- viability, T/C [9]: 104%
- viability, T/C [10]: 98%
- viability, T/C [11]: 73%
- viability, T/C [12]: 92.9%
- viability, T/C [13]: 132%
- viability, T/C [14]: 107%
- viability, T/C [15]: 100%
- viability, T/C [16]: 80.5%
- viability, T/C [17]: 78.2%
- viability, T/C [18]: 100%
- viability, T/C [19]: 146%
- viability, T/C [20]: 108%
- viability, T/C [21]: 91%
- viability, T/C [22]: 99.9%
- viability, T/C [23]: 102%
- viability, T/C [24]: 135%
- viability, T/C [25]: 145%
- viability, T/C [26]: 125%
- viability, T/C [27]: 130%
- viability, T/C [28]: 105%
- viability, T/C [29]: 109%
- viability, T/C [30]: 176%
- viability, T/C [31]: 170%
- viability, T/C [32]: 157%
- viability, T/C [33]: 139%
- viability, T/C [34]: 125%
- viability, T/C [35]: 127%

SMILES: O=C(C=Cc1cccc(S(=O)(=O)Nc2ccccc2)c1)NO
- viability, T/C (compound 0.0316 µM): 97.4% and 85.1% and 115%
- viability, T/C (compound 0.1 µM): 95.1% and 99.1% and 103%
- viability, T/C (compound 0.316 µM): 94.2% and 96.2% and 102%
- viability, T/C (compound 1 µM): 88.4% and 104% and 69.3%
- viability, T/C (compound 3.16 µM): 59.1% and 79.9% and 54.3%
- viability, T/C (compound 10 µM): 40.5% and 52.5% and 24.2%
- pIC50 (curve of compound): 5.26 and < 5.00 and 5.48
